# Values quoted from earlier work as cited in US11648211B2, “Nanoencapsulated combination drug formulations” (priority 2019, dated 2023).
# Structures can show the parent of a compound that is named as a salt. Where two headings read alike, the source gives them in different places.
# Tests used:
# [1] = system: SARS-2-S-driven entry into Caco-2 cells
# [2] = system: SARS-2-S-driven entry into Vero-TMPRSS2 cells
# [3] = in vivo, ip, 5 mg/kg
# [4] = human, in vivo
# [5] = in vivo
# advanced breast cancer = conditions: in vivo
compound,measurement,setting,value
CN(C)C(=O)COC(=O)Cc1ccc(OC(=O)c2ccc(NC(=N)N)cc2)cc1 [Camostat mesylate],SARS-2-S-driven entry,[1],partially blocked
same,SARS-2-S-driven entry,[2],partially blocked
"CCc1cnn2c(NCc3ccc[n+]([O-])c3)cc(N3CCCC[C@H]3CCO)nc12 [DCB, Dinaciclib]",half-life,[3],0.25 h
same,half-life,[4],3.3 h
same,patients with neutropenia,[4],43%
same,patients with thrombocytopenia,[4],3%
same,patients with grade 3-4 toxicities,[5],60%
same,grade 3-4 febrile neutropenia,advanced breast cancer,11%
same,grade 3-4 increased transaminase levels,advanced breast cancer,11%
same,grade 3-4 leukopenia,advanced breast cancer,21%
same,grade 3-4 neutropenia,advanced breast cancer,47%
"Cn1ncnc1[C@H]1c2n[nH]c(=O)c3cc(F)cc(c23)N[C@@H]1c1ccc(F)cc1 [TLZ, Talazoparib]","patients with anemia, low RBC count",oral,52%
same,"patients with leukopenia, low WBC count",oral,17%
same,"patients with thrombocytopenia, low PLT count",oral,27%
same,patients with neutropenia,patients treated with TLZ,35%
